Where “and” joins values, the source holds several entries; their conditions need not be identical. Equal entries are not always repeated. Where two headings read alike, the source gives them in different places.
Test system: NCI-60 standardized human tumor cell line panel
Assay: cells
Format: cell-based

In the case of `COc1cc2cc(C(=O)N3C[C@@H](CCl)c4c3cc(OC(=O)N(CCC(=O)N3CCN(C)CC3)C3CCCCC3)c3ccccc43)[nH]c2c(OC)c1OC` [P-CC60-CBI-TMI], the “NCI-60 screening: Log(GI50)” value was -5.81 and -5.62, the “NCI-60 screening: Log(GI50)” value (786-0 (RE) cell line, log10 of GI50 in M) was -5.76 and the GI50 (786-0 (RE) cell line, read-out: NCI-60 screening: Raw GI50) was 1.7 µM. The GI50 (786-0, read-out: GI50) was 1.7 µM, the “NCI-60 screening: Log(GI50)” value (A498 (RE) cell line, log10 of GI50 in M) was -5.56 and the GI50 (A498 (RE) cell line, read-out: NCI-60 screening: Raw GI50) was 2.8 µM. For the same compound, the GI50 (A498, read-out: GI50) was 2.8 µM, the GI50 (A549/ATCC, read-out: GI50) was 2 µM and the “NCI-60 screening: Log(GI50)” value (ACHN (RE) cell line, log10 of GI50 in M) was -6.31. The GI50 (ACHN, read-out: GI50) was 0.49 µM, the GI50 (BT-549, read-out: GI50) was 1.6 µM and the “NCI-60 screening: Log(GI50)” value (CAKI-1 (RE) cell line, log10 of GI50 in M) was -5.83. For the same compound, the GI50 (CAKI-1 (RE) cell line, read-out: NCI-60 screening: Raw GI50) was 1.5 µM, the GI50 (CAKI-1, read-out: GI50) was 1.5 µM and the GI50 (CCRF-CEM, read-out: GI50) was 0.99 µM. The GI50 (COLO 205, read-out: GI50) was 1.4 µM, the “NCI-60 screening: Log(GI50)” value (DU-145 (PR) cell line, log10 of GI50 in M) was -6.34 and the GI50 (DU-145, read-out: GI50) was 0.46 µM. It also gave a GI50 (EKVX, read-out: GI50) of 1.9 µM, a GI50 (HCC-2998, read-out: GI50) of 1.5 µM and a GI50 (HCT-15, read-out: GI50) of 1.7 µM. The GI50 (HCT-116, read-out: GI50) was 1.5 µM, the GI50 (HL-60(TB), read-out: GI50) was 0.75 µM and the GI50 (HOP-62, read-out: GI50) was 0.59 µM. The GI50 (HOP-92, read-out: GI50) was 2.5 µM, the GI50 (HT29, read-out: GI50) was 1.5 µM and the “NCI-60 screening: Log(GI50)” value (IGROV1 (OV) cell line, log10 of GI50 in M) was -5.64. For the same compound, the GI50 (IGROV1 (OV) cell line, read-out: NCI-60 screening: Raw GI50) was 2.3 µM, the GI50 (IGROV1, read-out: GI50) was 2.3 µM and the GI50 (K-562, read-out: GI50) was 0.68 µM. For the same compound, the GI50 (KM12, read-out: GI50) was 2.1 µM, the GI50 (LOX IMVI, read-out: GI50) was 1.1 µM and the GI50 (M14, read-out: GI50) was 1.5 µM. It also gave a GI50 (MALME-3M, read-out: GI50) of 1.6 µM, a GI50 (MCF7, read-out: GI50) of 0.32 µM and a GI50 (MDA-MB-435, read-out: GI50) of 1.8 µM. For the same compound, the GI50 (MDA-MB-468, read-out: GI50) was 0.69 µM, the GI50 (MOLT-4, read-out: GI50) was 0.59 µM and the “GI50/IC50, mean” value (NCI-60 vs ProliFiler, 19 overlapping cell lines) was 4.6. For the same compound, the GI50 (NCI-H23, read-out: GI50) was 0.47 µM, the GI50 (NCI-H226, read-out: GI50) was 1.4 µM and the “NCI-60 screening: Log(GI50)” value (NCI-H460 (LC) cell line, log10 of GI50 in M) was -6.29. For the same compound, the GI50 (NCI-H460, read-out: GI50) was 0.51 µM, the “NCI-60 screening: Log(GI50)” value (NCI-H522 (LC) cell line, log10 of GI50 in M) was -5.77 and the GI50 (NCI-H522 (LC) cell line, read-out: NCI-60 screening: Raw GI50) was 1.7 µM. For the same compound, the GI50 (NCI-H522, read-out: GI50) was 1.7 µM, the “NCI-60 screening: Log(GI50)” value (OVCAR-3 (OV) cell line, log10 of GI50 in M) was -5.68 and the GI50 (OVCAR-3 (OV) cell line, read-out: NCI-60 screening: Raw GI50) was 2.1 µM. The GI50 (OVCAR-3, read-out: GI50) was 2.1 µM, the “NCI-60 screening: Log(GI50)” value (OVCAR-4 (OV) cell line, log10 of GI50 in M) was -5.63 and the GI50 (OVCAR-4 (OV) cell line, read-out: NCI-60 screening: Raw GI50) was 2.3 µM. The GI50 (OVCAR-4, read-out: GI50) was 2.3 µM, the “NCI-60 screening: Log(GI50)” value (OVCAR-5 (OV) cell line, log10 of GI50 in M) was -5.29 and the GI50 (OVCAR-5, read-out: GI50) was 5.1 µM. The “NCI-60 screening: Log(GI50)” value (OVCAR-8 (OV) cell line, log10 of GI50 in M) was -5.78, the GI50 (OVCAR-8 (OV) cell line, read-out: NCI-60 screening: Raw GI50) was 1.7 µM and the GI50 (OVCAR-8, read-out: GI50) was 1.7 µM. The “NCI-60 screening: Log(GI50)” value (PC-3 (PR) cell line, log10 of GI50 in M) was -5.5, the GI50 (PC-3, read-out: GI50) was 3.1 µM and the GI50 (RPMI-8226, read-out: GI50) was 1.5 µM. The “NCI-60 screening: Log(GI50)” value (RXF 393 (RE) cell line, log10 of GI50 in M) was -5.97, the GI50 (RXF 393 (RE) cell line, read-out: NCI-60 screening: Raw GI50) was 1.1 µM and the GI50 (RXF 393, read-out: GI50) was 1.1 µM. The GI50 (SF-268, read-out: GI50) was 1.5 µM, the GI50 (SF-295, read-out: GI50) was 1.5 µM and the GI50 (SF-539, read-out: GI50) was 1.3 µM. The GI50 (SK-MEL-5, read-out: GI50) was 1.6 µM, the GI50 (SK-MEL-28, read-out: GI50) was 3.6 µM and the “NCI-60 screening: Log(GI50)” value (SK-OV-3 (OV) cell line, log10 of GI50 in M) was -5.67. For the same compound, the GI50 (SK-OV-3 (OV) cell line, read-out: NCI-60 screening: Raw GI50) was 2.2 µM, the GI50 (SK-OV-3, read-out: GI50) was 2.2 µM and the “NCI-60 screening: Log(GI50)” value (SN12C (RE) cell line, log10 of GI50 in M) was -5.92.

From publication PMC10141580, “Cyclic Dichalcogenides Extend the Reach of Bioreductive Prodrugs to Harness Thiol/Disulfide Oxidoreductases: Applications to seco-Duocarmycins Targeting the Thioredoxin System” (ACS Central Science, 2023)
